Experimental data as given in PubChem BioAssay (NCI).
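Cultured in 96-well plates, cells were exposed to test compound for 48 hours across five concentrations. GI50 marks 50% less growth. Definition used: TGI = concentration required for complete inhibition of growth.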

Legend:
Experiment in all cases: inhibition of tumour cell growth, NCI panel, 48 h
[1] = system: CAKI-1 renal
[2] = system: COLO 205 colon
[3] = system: BT-549 breast
[4] = system: SF-268 CNS
[5] = system: HCT-116 colon
[6] = system: EKVX NSCLC
[7] = system: UACC-62 melanoma
[8] = system: OVCAR-3 ovarian
[9] = system: SN12C renal
[10] = system: SK-MEL-28 melanoma
[11] = system: HOP-62 NSCLC
[12] = system: HCC-2998 colon
[13] = system: 786-0 renal
[14] = system: MDA-MB-435
[15] = system: NCI-H226 lung
[16] = system: SF-295 CNS
[17] = system: U251 CNS
[18] = system: DU-145 prostate
[19] = system: TK-10 renal
[20] = system: CCRF-CEM leukemia
[21] = system: M14 melanoma
[22] = system: UACC-257 melanoma
[23] = system: SNB-19 CNS
[24] = system: HL-60(TB) leukemia
[25] = system: NCI-H23 lung
[26] = system: K-562 leukemia
[27] = system: A549 NSCLC
[28] = system: RXF 393 renal
[29] = system: KM12 colon
[30] = system: ACHN renal
[31] = system: A498 renal
[32] = system: PC-3 prostate
[33] = system: RPMI-8226 leukemia
[34] = system: SK-MEL-5 melanoma
[35] = system: NCI-H522 lung
[36] = system: OVCAR-8 ovarian
[37] = system: HCT-15 colon
[38] = system: OVCAR-5 ovarian
[39] = system: UO-31 renal
[40] = system: SW-620 colon
[41] = system: LOX IMVI melanoma
[42] = system: SK-OV-3 ovarian
[43] = system: HT29 colon
[44] = system: HOP-92 NSCLC
[45] = system: MCF7 breast
[46] = system: HS 578T breast
[47] = system: NCI/ADR-RES ovarian
[48] = system: NCI-H460 lung
[49] = system: SK-MEL-2 melanoma
[50] = system: SF-539 CNS
[51] = system: MOLT-4 leukemia
[52] = system: MDA-MB-231 breast

COc1cc2c(/C=C3\C(=O)Nc4ccccc43)c[nH]c2cc1C
GI50 [1]: 409 nM
TGI [1]: 13300 nM
GI50 [2]: 118 nM
TGI [2]: 4390 nM
GI50 [3]: 294 nM
TGI [3]: 15800 nM
GI50 [4]: 861 nM
TGI [4]: > 100000 nM
GI50 [5]: < 10 nM
TGI [5]: 1220 nM
GI50 [6]: 55.9 nM
TGI [6]: 26500 nM
GI50 [7]: 77.5 nM
TGI [7]: 7430 nM
GI50 [8]: 306 nM
TGI [8]: 11800 nM
GI50 [9]: 275 nM
TGI [9]: 1390 nM
GI50 [10]: 21 nM
TGI [10]: 20300 nM
GI50 [11]: < 10 nM
TGI [11]: 10700 nM
GI50 [12]: < 17.9 nM
TGI [12]: 167 nM
GI50 [13]: < 21.8 nM
TGI [13]: 12600 nM
GI50 [14]: 56.6 nM
TGI [14]: 403 nM
GI50 [15]: 35 nM
TGI [15]: 19700 nM
GI50 [16]: 227 nM
TGI [16]: 1650 nM
GI50 [17]: 940 nM
TGI [17]: 4820 nM
GI50 [18]: 24.2 nM
TGI [18]: 12300 nM
GI50 [19]: 1310 nM
TGI [19]: 9950 nM
GI50 [20]: 19.6 nM
TGI [20]: 73.4 nM
GI50 [21]: < 17.8 nM
TGI [21]: 843 nM
GI50 [22]: < 10 nM
TGI [22]: 26000 nM
GI50 [23]: 112 nM
TGI [23]: 32300 nM
GI50 [24]: 494 nM
TGI [24]: 4450 nM
GI50 [25]: 11.5 nM
TGI [25]: 71.9 nM
GI50 [26]: 225 nM
TGI [26]: 61400 nM
GI50 [27]: < 28.9 nM
TGI [27]: 17300 nM
GI50 [28]: < 23.1 nM
TGI [28]: 710 nM
GI50 [29]: 239 nM
TGI [29]: 824 nM
GI50 [30]: 1640 nM
TGI [30]: 4510 nM
GI50 [31]: < 24.3 nM
TGI [31]: 16500 nM
GI50 [32]: 213 nM
TGI [32]: 13200 nM
GI50 [33]: 39.3 nM
TGI [33]: 16200 nM
GI50 [34]: < 15 nM
TGI [34]: 1890 nM
GI50 [35]: 833 nM
TGI [35]: > 35300 nM
GI50 [36]: 91.7 nM
TGI [36]: 7190 nM
GI50 [37]: 725 nM
TGI [37]: 2930 nM
GI50 [38]: 620 nM
TGI [38]: 19100 nM
GI50 [39]: 2870 nM
TGI [39]: > 40800 nM
GI50 [40]: < 20.9 nM
TGI [40]: 39800 nM
GI50 [41]: 652 nM
TGI [41]: 4190 nM
GI50 [42]: 85.6 nM
TGI [42]: 3210 nM
GI50 [43]: 152 nM
TGI [43]: > 100000 nM
GI50 [44]: 1540 nM
TGI [44]: 22300 nM
TGI [45]: > 82100 nM
GI50 [46]: < 22.9 nM
TGI [46]: 32100 nM
GI50 [47]: < 10 nM
TGI [47]: 73.6 nM
GI50 [48]: 76.1 nM
TGI [48]: > 100000 nM
GI50 [49]: 17700 nM
TGI [49]: > 63400 nM
GI50 [50]: < 13.8 nM
TGI [50]: < 24.3 nM
GI50 [51]: 142 nM
TGI [51]: 2520 nM
GI50 [52]: 289 nM
TGI [52]: 2690 nM
